In experiment [1] the target is T1, G-Actin from rabbit muscle (Oryctolagus cuniculus, UniProt P68135).
T1 construct: G-Actin from rabbit muscle; purchased Sigma-Aldrich, St Louis, Mo; host or cells: rabbit muscle (tissue-derived)
In words: ELISA actin binding assay (solid-phase, immobilized actin). The note with it: immobilized G-actin 500 ng/well. Here is the method: Peptides corresponding to a variety of amino acid sequences in the region of human RNASET2 comprising helix 5 and helix 6 were synthesized and assayed for actin binding in an ELISA actin binding assay.
Solid-phase ELISA for RNASET2 peptide binding to immobilized actin was performed as modified from Mejean 1987 (Biochem. J. 244: 571-577) and Mejean 1992 (Eur. J Biochem. 209: 555-562). All steps were conducted at 37° C. Immuno-96 Microwell™ solid plates (Thermo Fisher Scientific, MA) coated with 500 ng/well of G-Actin from rabbit muscle (Sigma-Aldrich, St Louis, Mo.) in 100 ul of 0.05 M carbonate buffer, pH 9.5 (Sigma-Aldrich, Mo), incubated for 1 h and washed with 250 ul/well Tris Buffered Saline (TBS) (Sigma-Aldrich). The wells were blocked with 3% bovine serum albumin (BSA, Sigma-Aldrich) in 200 ul/well TBS for another 1 hour and washed with 250 ul/well TBS. The candidate peptides are then added at various concentrations (for example, serial dilutions giving 500, 250 or 125 ng/well) in 100 ul/well Tris Buffered Saline (TBS), incubated for 1 hour and washed 3 times with 250 ul/well TBS containing 0.05% Tween®20 (TBST, Sigma-Aldrich). Anti-T2 RNase (rabbit anti-rhtrRNASET2, Anilab, Israel, whole serum or antiserum) was then added, incubated for 1 hour and the plates washed 3 times with 250 ul/well TBST. Labeled second antibody [peroxidase-conjugated affinity pure goat-anti rabbit IgG (Jackson, Pa.)] was added at a dilution of 1:10:000 in 100 ul/well TBS, incubated for 1 hour and the plates washed twice with 250 ul/well TBST. After an additional wash with 250 ul/well TBS, 1-Step Ultra TMB-ELISA (TMB-3,3′,5,5′ Tetramethylbenzidine) (Thermo-Scientific) was added (100 ul/well) and after 15-25 min of incubation, the reaction was read at A650 using Infinite F50-TECAN ELISA READER (TECAN, Austria). Each assay was performed in triplicates.
A general note: In an ELISA, binding on a coated surface is turned into a signal by an enzyme label.

Experiment [2] has as its system Super metastatic A375SM cells. In words: A375SM xenograft tumor model in athymic nude mice. The class given is in vivo, mouse. The note with it: for Tumor Weight: excised tumors at end. On the procedure: Female Hds-athymic nude mice (Harlan, Rehovot, Israel) were housed in laminar flow cabinets under specific pathogen-free conditions. Experiments were performed on mice at 7-8 weeks of age. The Animals were maintained in facilities approved by the Ethics Committee for Animal Experimentation, The Israeli Ministry of Health.
Subcutaneous tumors were produced by injecting 2.5×10^5 Super metastatic A375SM cells (single-cell suspensions, >95% viability by a trypan blue exclusion test) in 0.2 ml of Hanks' buffered salt solution into the left flank of each mouse. Tumor growth was recorded three times weekly with a caliper and calculated as a×b^2/2 cm^3 (a, long diameter; b, short diameter). Treatments commenced when tumors arrived to about 100 mm^3 volumes, as follows (iv=intravenous; it=intra-tumor, direct injection, q3×6=three times per week for six weeks, […]):
Each group comprised 10 mice. At the end of experiment, tumors were excised, weighed, and prepared for histopathological examination.
Sections from the excised tumors were examined for athological changes, using Hematoxylin-Eosin staining (nuclei stain blue) and FragEL™ TdT DNA Fragmentation Detection stain (Calbiochem, EMD Millipore, MA) for visualizing apoptotic nuclei.

Setting [3] is: 2.5 mg/kg intratumoral, three times per week.
Where [4] appears, read: 2.5 mg/kg iv, three times per week.
Setting [5] is: 5 mg/kg iv, three times per week.

Marks after values point to notes of the source that are not given here. Where no end group is shown, it is not given here.

For “ALNSQKKYFGRSLELYRELDLNSVLLKLGIKPSINYYQVADFKDALARVYGVIPKIQ [SEQ ID NO: 60]”, the “actin binding on ELISA” value in experiment [1] was “strong”.
For the sequence “KKYFGRSLELYRELDLNSVLLKLGIK [SEQ ID NO: 57, 26-amino acid peptide representing amino acids 108-133 of RNASET2]”, the “tumor volume (tumor growth)” value in experiment [2] (2.5 mg/kg intra-tumor, three times per week, vs PBS control) was “Increasing inhibition of tumor growth”. In addition, the “tumor apoptosis (FragEL stain of tumor sections)” value in experiment [2] (setting [3]) is listed as “abundant apoptosis”; in experiment [2] (2.5 mg/kg iv, daily), “heightened apoptosis”; in experiment [2] (setting [4]) it was “abundant apoptotic cells”; in experiment [2] (setting [5]), “an increase in apoptotic rate”; in experiment [2] (7.5 mg/kg iv, three times per week), “an increase in apoptotic rate”. For the same sequence, the “tumor vascular structures (H&E sections)” value in experiment [2] (setting [3]) was “tumor cells can be seen accumulating towards the blood vessels”; in experiment [2] (2.5 mg/kg iv, daily), “significant disruption of tumor histology and vascular structures”; in experiment [2] (setting [4]), “visible disruption of the endothelial structure”; in experiment [2] (setting [5]) it was “only partial disruption of the endothelial cell structures”; in experiment [2] (7.5 mg/kg iv, three times per week, relative to PBS controls) it was “A small, if any effect”. The “tumor volume (tumor development)” value in experiment [2] (2.5 mg/kg iv, daily for six weeks, vs PBS control) is recorded as “increased the rate of tumor development”; in experiment [2] (2.5 mg/kg iv, three times per week for six weeks, vs PBS control) it was “trend of increasing inhibition of tumor development”. The “Tumor Weight” value is listed as 3469 ± 648^a in experiment [2] (2.5 mg/kg q7x6 iv), 1798 ± 385^b in experiment [2] (5 mg/kg q3x6 iv) and 1471 ± 418^b in experiment [2] (7.5 mg/kg q3x6 iv). Also, the tumor growth result in experiment [2] (5 mg/kg iv, three times per week, vs PBS control) is “no visible significant effect on tumor growth”; in experiment [2] (7.5 mg/kg iv, three times per week, vs PBS control), “no visible significant effect on tumor growth”. The “actin binding on ELISA” value in experiment [1] is reported as “strong actin binding”.

The record behind these values is patent US20160340659A1, “ACTIN BINDING PEPTIDES AND COMPOSITIONS COMPRISING SAME FOR INHIBITING ANGIOGENESIS AND TREATING MEDICAL CONDITIONS ASSOCIATED WITH SAME” (YISSUM RESEARCH AND DEVELOPMENT COMPANY OF THE HEBREW …, priority 2014, published 2016).
